Molecules are shown by their SMILES.

One experiment relates to Puccinia recondita f. sp. tritici. As to the kind of experiment: Test I: wheat leaf rust, preventive spray on wheat seedlings, visual disease rating. The conditions noted are these: wheat leaf rust, preventive; 100 = 100% disease control, 0 = no control relative to controls.
As for `Cc1nn(C)c(Nc2c(F)cc(F)cc2F)c1-c1cccc(F)c1F` [compound 203], the “Test I rating (% disease control)” value is 96%.
Same read-out and setting: as for `COc1ccc(-c2c(C)nn(C)c2Oc2c(F)cc(C#N)cc2F)c(Cl)c1` [compound 155], the figure is 100%; as for `COc1ccc(Nc2c(-c3ccc(F)cc3F)c(C)nn2C)c(Cl)c1` [compound 242], 91%.
With `COc1cc(F)c(Nc2c(-c3c(F)cccc3C(F)(F)F)c(C)nn2C)c(F)c1` [compound 263], the “Test I rating (% disease control)” value amounted to 98%.
In the case of `Cc1nn(C)c(Nc2ccc(Cl)cc2)c1-c1ccc(F)cc1F` [compound 195], the “Test I rating (% disease control)” value was determined as 98%.
Turning to `COc1ccc(Nc2c(-c3c(F)cccc3F)c(C)nn2C)c(F)c1` [compound 180], the “Test I rating (% disease control)” value came out at 68%.

The same experiment, now with this note: wheat leaf rust, sprayed the day before inoculation; 100 = 100% disease control, 0 = no disease control relative to controls.
As to `COc1ccc(-c2c(C)nn(C)c2Oc2ccc(C#N)cc2Cl)c(Br)c1` [compound 318], the “Test I disease control rating” value came to 97%.
As to `Cc1nn(C)c(Nc2ccc(F)cc2F)c1-c1c(Cl)cccc1Cl` [compound 339], the “Test I disease control rating” value was found to be 98%.

The test system of a further experiment is Botrytis cinerea. As to the kind of experiment: Test B: tomato Botrytis, preventive spray on tomato seedlings, visual disease rating. Conditions: tomato Botrytis; 100 = 100% disease control, 0 = no control relative to controls.
`Cc1nn(C)c(Nc2c(F)cc(F)cc2F)c1-c1cccc(F)c1F` [compound 203]: the “Test B rating (% disease control)” value was found to be 99%.
In the case of `COc1ccc(-c2c(C)nn(C)c2Oc2c(F)cc(C#N)cc2F)c(Cl)c1` [compound 155], the “Test B rating (% disease control)” value was determined as 100%.
For `COc1ccc(Nc2c(-c3ccc(F)cc3F)c(C)nn2C)c(Cl)c1` [compound 242], the “Test B rating (% disease control)” value was 99%.
For the compound `COc1cc(F)c(Nc2c(-c3c(F)cccc3C(F)(F)F)c(C)nn2C)c(F)c1` [compound 263], the “Test B rating (% disease control)” value is on record as 100%.
Take `Cc1nn(C)c(Nc2ccc(Cl)cc2)c1-c1ccc(F)cc1F` [compound 195]: the “Test B rating (% disease control)” value stood at 100%.
Still for that read-out and setting: as for `COc1ccc(Nc2c(-c3c(F)cccc3F)c(C)nn2C)c(F)c1` [compound 180], the figure is 100%.

The experiment is the same for the next values; noted with them: tomato Botrytis; 100 = 100% disease control, 0 = no disease control relative to controls.
Consider `COc1ccc(-c2c(C)nn(C)c2Oc2ccc(C#N)cc2Cl)c(Br)c1` [compound 318], for which the “Test B disease control rating” value is 99%.
Regarding `Cc1nn(C)c(Nc2ccc(F)cc2F)c1-c1c(Cl)cccc1Cl` [compound 339], the “Test B disease control rating” value came to 100%.

Another experiment has as its system Septoria tritici. Nature of the experiment: Test G: wheat leaf blotch, preventive spray on wheat seedlings, visual disease rating. Conditions: wheat leaf blotch, sprayed the day before inoculation; 100 = 100% disease control, 0 = no disease control relative to controls.
On to `COc1ccc(-c2c(C)nn(C)c2Oc2ccc(C#N)cc2Cl)c(Br)c1` [compound 318], for which the “Test G disease control rating” value is 100%.
The same measure, in the same setting: in the case of `Cc1nn(C)c(Nc2ccc(F)cc2F)c1-c1c(Cl)cccc1Cl` [compound 339] it was 100%.

Still in this experiment, the particulars now being: wheat leaf blotch; 100 = 100% disease control, 0 = no control relative to controls.
As to `Cc1nn(C)c(Nc2c(F)cc(F)cc2F)c1-c1cccc(F)c1F` [compound 203], the “Test G rating (% disease control)” value is recorded as 98%.
Turning to `COc1ccc(-c2c(C)nn(C)c2Oc2c(F)cc(C#N)cc2F)c(Cl)c1` [compound 155], the “Test G rating (% disease control)” value amounted to 100%.
Turning to `COc1ccc(Nc2c(-c3ccc(F)cc3F)c(C)nn2C)c(Cl)c1` [compound 242], the “Test G rating (% disease control)” value came to 100%.
On the same count and under the same terms, in the case of `COc1cc(F)c(Nc2c(-c3c(F)cccc3C(F)(F)F)c(C)nn2C)c(F)c1` [compound 263] it was 100%; in that of `Cc1nn(C)c(Nc2ccc(Cl)cc2)c1-c1ccc(F)cc1F` [compound 195], 100%; in that of `COc1ccc(Nc2c(-c3c(F)cccc3F)c(C)nn2C)c(F)c1` [compound 180], 98%.

Another experiment concerns Alternaria solani. As to the kind of experiment: Test C: tomato early blight, preventive spray on tomato seedlings, visual disease rating. The conditions noted are these: tomato early blight; 100 = 100% disease control, 0 = no control relative to controls.
For `Cc1nn(C)c(Nc2c(F)cc(F)cc2F)c1-c1cccc(F)c1F` [compound 203], the “Test C rating (% disease control)” value was 0%.
Consider `COc1ccc(-c2c(C)nn(C)c2Oc2c(F)cc(C#N)cc2F)c(Cl)c1` [compound 155], for which the “Test C rating (% disease control)” value was 99%.
On to `COc1ccc(Nc2c(-c3ccc(F)cc3F)c(C)nn2C)c(Cl)c1` [compound 242], for which the “Test C rating (% disease control)” value was determined as 37%.
Turning to `COc1cc(F)c(Nc2c(-c3c(F)cccc3C(F)(F)F)c(C)nn2C)c(F)c1` [compound 263], the “Test C rating (% disease control)” value was 98%.
With `Cc1nn(C)c(Nc2ccc(Cl)cc2)c1-c1ccc(F)cc1F` [compound 195], the “Test C rating (% disease control)” value was 97%.
Regarding `COc1ccc(Nc2c(-c3c(F)cccc3F)c(C)nn2C)c(F)c1` [compound 180], the “Test C rating (% disease control)” value stood at 99%.

Still in this experiment, the particulars now being: tomato early blight; 100 = 100% disease control, 0 = no disease control relative to controls.
Consider `COc1ccc(-c2c(C)nn(C)c2Oc2ccc(C#N)cc2Cl)c(Br)c1` [compound 318], for which the “Test C disease control rating” value is 0%.
Consider `Cc1nn(C)c(Nc2ccc(F)cc2F)c1-c1c(Cl)cccc1Cl` [compound 339], for which the “Test C disease control rating” value was 0%.

The subject of the next experiment is Erysiphe graminis f sp. tritici. Nature of the experiment: Test J: wheat powdery mildew, preventive spray on wheat seedlings, visual disease rating. Conditions: wheat powdery mildew, sprayed the day before inoculation; 100 = 100% disease control, 0 = no disease control relative to controls.
Consider `COc1ccc(-c2c(C)nn(C)c2Oc2ccc(C#N)cc2Cl)c(Br)c1` [compound 318], for which the “Test J disease control rating” value stood at 89%.
The same measure, in the same setting: as for `Cc1nn(C)c(Nc2ccc(F)cc2F)c1-c1c(Cl)cccc1Cl` [compound 339], the figure is 100%.

The experiment is the same for the next values; noted with them: wheat powdery mildew; 100 = 100% disease control, 0 = no control relative to controls.
On to `Cc1nn(C)c(Nc2c(F)cc(F)cc2F)c1-c1cccc(F)c1F` [compound 203], for which the “Test J rating (% disease control)” value is recorded as 100%.
In the case of `COc1ccc(-c2c(C)nn(C)c2Oc2c(F)cc(C#N)cc2F)c(Cl)c1` [compound 155], the “Test J rating (% disease control)” value worked out at 99%.
Consider `COc1ccc(Nc2c(-c3ccc(F)cc3F)c(C)nn2C)c(Cl)c1` [compound 242], for which the “Test J rating (% disease control)” value came to 100%.
`COc1cc(F)c(Nc2c(-c3c(F)cccc3C(F)(F)F)c(C)nn2C)c(F)c1` [compound 263]: the “Test J rating (% disease control)” value is 100%.
Turning to `Cc1nn(C)c(Nc2ccc(Cl)cc2)c1-c1ccc(F)cc1F` [compound 195], the “Test J rating (% disease control)” value turned out to be 97%.
Consider `COc1ccc(Nc2c(-c3c(F)cccc3F)c(C)nn2C)c(F)c1` [compound 180], for which the “Test J rating (% disease control)” value is listed as 100%.

The test system of a further experiment is Septoria nodorum. Nature of the experiment: Test F: Septoria glume blotch, preventive spray on wheat seedlings, visual disease rating. The conditions noted are these: Septoria glume blotch on wheat; 100 = 100% disease control, 0 = no disease control relative to controls.
For the compound `COc1ccc(-c2c(C)nn(C)c2Oc2ccc(C#N)cc2Cl)c(Br)c1` [compound 318], the “Test F disease control rating” value came to 0%.
Still for that read-out and setting: in the case of `Cc1nn(C)c(Nc2ccc(F)cc2F)c1-c1c(Cl)cccc1Cl` [compound 339] it was 0%.

The experiment is the same for the next values; noted with them: Septoria glume blotch; 100 = 100% disease control, 0 = no control relative to controls.
On to `Cc1nn(C)c(Nc2c(F)cc(F)cc2F)c1-c1cccc(F)c1F` [compound 203], for which the “Test F rating (% disease control)” value worked out at 0%.
On to `COc1ccc(-c2c(C)nn(C)c2Oc2c(F)cc(C#N)cc2F)c(Cl)c1` [compound 155], for which the “Test F rating (% disease control)” value is on record as 100%.
On to `COc1ccc(Nc2c(-c3ccc(F)cc3F)c(C)nn2C)c(Cl)c1` [compound 242], for which the “Test F rating (% disease control)” value was 0%.
On to `COc1cc(F)c(Nc2c(-c3c(F)cccc3C(F)(F)F)c(C)nn2C)c(F)c1` [compound 263], for which the “Test F rating (% disease control)” value is 0%.
Same read-out and setting: in the case of `Cc1nn(C)c(Nc2ccc(Cl)cc2)c1-c1ccc(F)cc1F` [compound 195] it was 60%; in that of `COc1ccc(Nc2c(-c3c(F)cccc3F)c(C)nn2C)c(F)c1` [compound 180], 0%.

The next experiment concerns Puccinia recondita f. sp. tritici. As to the kind of experiment: Test H: wheat leaf rust, curative spray on inoculated wheat seedlings, visual disease rating. Conditions: wheat leaf rust, curative; 100 = 100% disease control, 0 = no control relative to controls.
Consider `Cc1nn(C)c(Nc2c(F)cc(F)cc2F)c1-c1cccc(F)c1F` [compound 203], for which the “Test H rating (% disease control)” value is 0%.
As for `COc1ccc(-c2c(C)nn(C)c2Oc2c(F)cc(C#N)cc2F)c(Cl)c1` [compound 155], the “Test H rating (% disease control)” value is 92%.
With `COc1ccc(Nc2c(-c3ccc(F)cc3F)c(C)nn2C)c(Cl)c1` [compound 242], the “Test H rating (% disease control)” value came out at 0%.
As to `COc1cc(F)c(Nc2c(-c3c(F)cccc3C(F)(F)F)c(C)nn2C)c(F)c1` [compound 263], the “Test H rating (% disease control)” value worked out at 0%.
In the case of `Cc1nn(C)c(Nc2ccc(Cl)cc2)c1-c1ccc(F)cc1F` [compound 195], the “Test H rating (% disease control)” value is given as 0%.
With `COc1ccc(Nc2c(-c3c(F)cccc3F)c(C)nn2C)c(F)c1` [compound 180], the “Test H rating (% disease control)” value is 0%.

The experiment is the same for the next values; noted with them: wheat leaf rust, sprayed after inoculation; 100 = 100% disease control, 0 = no disease control relative to controls.
On to `COc1ccc(-c2c(C)nn(C)c2Oc2ccc(C#N)cc2Cl)c(Br)c1` [compound 318], for which the “Test H disease control rating” value came to 0%.
Consider `Cc1nn(C)c(Nc2ccc(F)cc2F)c1-c1c(Cl)cccc1Cl` [compound 339], for which the “Test H disease control rating” value was 0%.

Values taken from US10448639B2, “Fungicidal pyrazoles” (FMC CORPORATION, priority 2009, dated 2019).
